Measured values from patent US20220354817A1, “PHARMACEUTICAL COMPOSITION FOR PREVENTING OR TREATING SARCOPENIA CONTAINING NON-NATURAL AMINO ACID DERIVATIVE” (MYO-TEC-SCI, priority 2019, published 2022).
Where a name gives a salt, the structure may show the parent alone.

Tests used:
[1] = test system: myostatin promoter; assay: Myostatin promoter activity, dual luciferase assay in C2C12 cells transfected with pGL4.15-MSTN; assay type: cell-based, mouse; settings: for inhibition of myostatin promoter activity: 0.1 mM and 1 mM in medium without L-leucine; for inhibition of myostatin promoter activity / decrease in myostatin promoter activity compared to L-leucine: C2C12; for decrease in myostatin promoter activity compared to L-leucine: 1 mM in medium without L-leucine
Experimental: After seeding 1×10^5 cells of mouse skeletal muscle cells C2C12 (ATCC, US) in a 12-well culture plate, on the next day, pGL4.15 empty vector and pGL4.15-MSTN vector containing myostatin promoter were transfected using Lipofectamine 2000 for 4 hours. […] After one day, a dual luciferase assay kit (Promega Inc.) was used to measure the promoter activity of myostatin.

[2] = test system: myostatin mRNA; assay: Myostatin mRNA expression by qRT-PCR in C2C12 cells, corrected with beta-actin; assay type: cell-based, mouse; settings: for inhibition of myostatin mRNA expression: 0.1 mM and 1 mM in medium without L-leucine
Excerpt: […] After one day, the mRNA expression level of myostatin was identified using qRT-PCR, and the myostatin mRNA expression value was corrected using the expression value of beta-actin.

[3] = test system: mouse skeletal muscle cells C2C12; assay: Degree of differentiation of C2C12 cells and number of differentiated intracellular nuclei; assay type: cell-based; settings: 1 mM in differentiation medium, C2C12 grown without L-leucine; for cells in which differentiation occurs, compared to L-leucine: days 1, 6, 9
Experimental: (§1) To observe how L-leucine and D-Leu-OMe-HCl act on the differentiation of mouse skeletal muscle cells C2C12, a differentiation medium containing 1 mM L-leucine and D-Leu-OMe-HCl was given to mouse skeletal muscle cells C2C12 continuously grown in a medium without L-leucine, respectively. On days 1, 6, and 9, the degree of differentiation of mouse skeletal muscle cells and the number of nuclei present in the differentiated cells were measured (see FIG. 13).
as §1, with “D-Leu-BOC—H2O” for “D-Leu-OMe-HCl”, “15).” for “13).”

[4] = 1 mM in medium without L-leucine, C2C12
[5] = 0.1 mM in medium without L-leucine, C2C12, after one day

Compound | inhibition of myostatin promoter activity [1] | decrease in myostatin promoter activity compared to L-leucine [1] | inhibition of myostatin mRNA expression ([2]; C2C12) | decrease of myostatin mRNA expression level relative to L-leucine [2, 4] | cells containing 6 or more nuclei [3] | cells in which differentiation occurs, compared to L-leucine [3] | decrease in myostatin mRNA expression level compared to L-leucine ([2]; 0.1 mM in medium without L-leucine, C2C12) | decrease in myostatin mRNA expression level compared to L-leucine [2, 4] | myostatin promoter activity [1, 5] | expression of myostatin mRNA [2, 5]
CC(C)CC(NC(=O)OC(C)(C)C)C(=O)O [D-Leu-BOC—H2O] | inhibited | about 1.89 times | inhibited | similarly to L-leucine | observed statistically significantly | relatively large number of cells in which differentiation occurs |  |  |  | 
COC(=O)C(N)CC(C)C [D-Leu-OMe-HCl] | inhibited | about 1.96 times | inhibited |  | observed statistically significantly | relatively large number of cells in which differentiation occurs | about 1.97 times | about 3.68 times |  | 
CC(C)C[C@H](N)C(=O)OC(C)(C)C.Cl [L-Leu-OtBu-HCl] |  |  |  |  |  |  |  |  | significantly reduced | decreased
CC(C)C[C@H](N)C(=O)O [L-leucine, reference compound] | inhibited |  | inhibited |  |  |  |  |  |  | 
